Laboratory results reported in PMC7920274, “Targeting of CXCR4 by the Naturally Occurring CXCR4 Antagonist EPI-X4 in Waldenström’s Macroglobulinemia” (Cancers, 2021).
Entries after “also recorded” stand apart in the source; their conditions may differ.

How the values were obtained:
[1] = tested on: CXCR4 mutant-expressing cells; conditions: cited from earlier work
[2] = tested on: mitochondrial cytotoxicity; conditions: cited from earlier work
[3] = tested on: CXCR7; design: method as in PMID 25921529; conditions: cited from earlier work
[4] = tested on: ERK1 (Tyr204)/ERK2 (Tyr187) phosphorylation, CXCR4 transduced BCWM.1 cells; test: ERK phosphorylation by flow cytometry, CXCR4-transduced BCWM.1 cells; assay type: cell-based; conditions: wild-type or mutated CXCR4 or empty vector control; Figure S5B
Protocol: Cells (100,000) were seeded in 100 µL starvation medium (RPMI, 1% FCS) and starved for 2 h. 5 µL compound in PBS was added and cells were further incubated for 15 min. Afterwards, 5 µL CXCL12 (100 ng/mL final concentration on cells) was added for 2 min before the reaction was stopped by adding PFA and shifting to 4 °C. After 15 min, medium was removed by centrifugation and cells permeabilized by adding ice cold MetOH for 15 min. Cells were then washed and the first antibody was added (phospho-p44/42 MAPK (Erk1) (Tyr204)/(Erk2) (Tyr187) (D1H6G) mouse mAb (Cell Signaling, Danvers, Massachusetts, USA, #5726) and phospho-Akt (Ser473) (193H12) rabbit mAb (Cell Signaling, #4058)) for 2 h and stained with adequate secondary antibody afterwards. Cells were analyzed by flow cytometry with FACS Cytoflex (Beckman Coulter, Brea, CA, USA). For time-kinetic experiments, fold-stimulation was determined by MFI (stimulated)/MFI (unstimulated) for each time point. For inhibition experiments, MFI from unstimulated cells was subtracted from each point and signal of stimulated cells without inhibitor normalized to 100%.

[5] = tested on: WM cells; test: Transwell migration of WM cells, general statement; assay type: cell-based; conditions: 10 nM CXCL12, 2 h, 37 °C; non-specific migration 3,4%; CellTiter-Glo
Protocol: 10 nM CXCL12 was supplemented to the lower chamber. After 2 h incubation at 37 °C, 5% CO2, cells that had migrated to the lower compartment were analyzed using the CellTiter-Glo Luminescent Cell Viability Assay (Promega, Madison, WI, USA) according to the manufacturer’s instructions. Percentage of specific migration was calculated using the following formula: % migration = ((specific migration-unspecific migration)/total cells) × 100. The average of absolute percentage of non-specific migration was very low in some experiments with 3,4% compared to an average of 81% CXCL12 induced migration.

| Compound | Abrogation of CXCL12 rescue from ibrutinib-induced apoptosis [1] | Mitochondrial cytotoxicity [2] | Interaction with CXCR7 [3] | CXCL12 effect on phosphorylation / MAPK signaling [4] | CXCL12 induced migration, average [5] [%] |
| --- | --- | --- | --- | --- | --- |
| c1cc(CN2CCCNCCNCCCNCC2)ccc1CN1CCCNCCNCCCNCC1 [AMD3100] | the effect could be abrogated by adding plerixafor | do not exert mitochondrial cytotoxicity, in contrast to AMD3100 | acts as an allosteric agonist of this receptor | – | – |
| CXCL12: chemokine ligand CXCL12 | – | – | – | increased upon CXCL12 stimulation; also recorded: increases MAPK signaling in cells expressing CXCR4 wildtype constitutively to the same extent as in CXCR4-mutant cells | 81 |
